target: Prostaglandin E2 receptor EP2 subtype (Homo sapiens) (UniProt P43116); experiment: EP2 receptor modulators, dose response, cell-based, human EP2, PGE2 EC50 shift (AID 1421); conditions: EP2-expressing cells, PGE2 EC50 shift by compound; measured here: PGE2 EC50 at 6.7 uM compound
Sequence (P43116 whole entry, looked up): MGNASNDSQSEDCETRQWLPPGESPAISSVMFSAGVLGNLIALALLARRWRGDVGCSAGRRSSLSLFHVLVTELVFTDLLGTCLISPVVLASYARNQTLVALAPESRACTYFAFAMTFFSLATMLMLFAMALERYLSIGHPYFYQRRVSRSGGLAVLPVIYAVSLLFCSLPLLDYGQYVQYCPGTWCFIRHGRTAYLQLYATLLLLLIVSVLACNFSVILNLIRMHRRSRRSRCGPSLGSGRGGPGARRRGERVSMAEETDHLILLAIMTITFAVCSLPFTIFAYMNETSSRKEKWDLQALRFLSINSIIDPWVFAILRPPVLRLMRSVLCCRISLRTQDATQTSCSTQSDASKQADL

| Structure (SMILES) | PGE2 EC50 with compound [nM] |
| --- | --- |
| Cc1ccc(C(Sc2ccccc2)C(Cn2cncn2)C(=O)c2ccccc2)cc1 (stereo not drawn) | 0.97 |
| CC(C)N(CCNC(=O)c1oc(=O)c2ccccc2c1-c1ccccc1)Cc1ccco1 | 1.6 |
| COc1ccc(C(=O)Nc2cc(C)nn2-c2nc3ccccc3[nH]2)c(OC)c1 | 0.91 |
| CC(=O)Nc1nnc(CCN2CCCCC2)s1 | 1.46 |
| Clc1ccc(-c2nc3ccccn3c2CN2CCCCC2)cc1 | 1.26 |
| COc1cc(OC)c2c(OC)c(-c3ccc4c(c3)OCO4)c(=O)oc2c1 | 1.43 |
| O=C1c2ccccc2OC2(C=Cc3ccccc3O2)N1Cc1ccccc1 (stereo not drawn) | 0.31 |
| Cc1ccc(S(=O)(=O)c2c(C)nn(-c3ccccc3)c2OC(=O)c2ccco2)cc1 | 0.71 |
| COc1ccc(C2=NN(C(=O)c3cccs3)C(O)(C(F)(F)F)C2)cc1 (stereo not drawn) | 3 |
| N#CCSc1nc2c(c(C3CC=CCC3)c1C#N)CCC2 (stereo not drawn) | 1.45 |
| CCOP(=S)(OCC)Oc1nc(Cl)c(Cl)cc1Cl | 0.91 |
| O=C(Nc1ccccc1N1CCCCC1)c1ccc(Cl)c([N+](=O)[O-])c1 | 1.23 |
| C/C(Cl)=C/Cn1c(SC(C)C)nc2c1c(=O)[nH]c(=O)n2C | 0.95 |
| CCOC(=O)c1c(/N=C/C2C(=O)CCCC2=O)sc2c1CCCC2 | 1.32 |
| c1ccc(CCc2ccccc2-c2nc(-c3cccnc3)no2)cc1 | 0.84 |
| Cc1ccc2cccc(NC(=O)c3ccc(Br)o3)c2n1 | 0.83 |
| O=C(OCC(=O)N1N=C(c2ccc(Cl)cc2)CC1c1ccco1)c1ccco1 (stereo not drawn) | 1.63 |
| Cc1ccc(N(C(=O)c2snc(C(N)=O)c2N)C(C(=O)NCCC(C)C)c2ccco2)cc1 (stereo not drawn) | 2.61 |
| CC(C)c1ccc(/C=N/Nc2cc(N3CCOCC3)nc(N3CCOCC3)n2)cc1 | 0.98 |
| Clc1ccc(-c2nn3c(-c4ccccc4)nnc3s2)cc1 | 0.93 |

| Structure (SMILES) | PGE2 EC50 with compound [nM] |
| --- | --- |
| CCOc1cc(/C=N/NC(N)=O)ccc1OC(=O)c1ccc(C)cc1 | 1.52 |
| COc1cc2nc(N3CCN(C(=O)C4CCCO4)CC3)nc(N)c2cc1OC (stereo not drawn) | 0.85 |
| CCOC(=O)C(C)Sc1ncc(OC)c(Sc2ccc(Cl)cc2)n1 (stereo not drawn) | 0.67 |
| O=C(CNCc1ccccc1Cl)Nc1ccccc1N1CCCCC1 | 0.64 |
| Cc1ccccc1-n1c(SCC(=O)N2CCCC2)nnc1-c1ccccn1 | 1.28 |
| O=S1(=O)CCN(Cc2cccc(Cl)c2)CC1 | 1.39 |
| CCSc1cc(N2CCOCC2)nc(-c2ccccc2)n1 | 1.02 |
| C=CCn1c(=O)c(C(=O)NCCc2ccccc2)c(O)c2ccccc21 | 2.43 |
| Cc1cccc(Cn2c(Cc3ccccc3)nc3ccccc32)c1 | 0.71 |
| O=c1cc(N2CCCCC2)c(-c2ccccc2)nn1Cc1c(Cl)cccc1Cl | 0.71 |
| CC(=C\c1ccccc1)/C=C1/SC(=S)N(C(C(=O)O)C(C)C)C1=O (stereo not drawn) | 1.31 |
| O=c1c2ccccc2c(-c2ccc(Br)cc2)nn1Cc1ccccc1 | 0.78 |
| Cc1cccc(Cn2c(=O)n(Cc3ccco3)c(=O)c3ccccc32)c1 | 1.13 |
| O=C1CC(O)(c2ccccc2)C(c2ccccc2)=C1c1ccccc1 (stereo not drawn) | 0.87 |
| CN(N=O)c1ccc(O)c(O)c1 | 1.26 |
| Cc1nc2ccccc2c(-c2ccccc2)c1C(=O)c1ccccc1 | 2.55 |
| CCOC(=O)c1c(-c2ccc(-c3ccccc3)cc2)csc1NC(=O)CCN1CCOCC1 | 1.34 |
| COC(=O)c1c(NC(=O)c2ccccc2N(C)S(=O)(=O)c2ccccc2)sc2c1CCCC2 | 1.49 |
| CCOc1ccc(C(C)=O)cc1CC(C(N)=O)C(N)=O | 1.11 |
| Cc1ccc(CN2C(=O)CN=C(c3ccccc3)c3ccccc32)cc1 | 1.23 |

| Structure (SMILES) | PGE2 EC50 with compound [nM] |
| --- | --- |
| COC(=O)C(C)Sc1ncnc2c1nnn2-c1ccc(F)cc1 (stereo not drawn) | 1.11 |
| CC(C)(Oc1ccc(Cl)cc1)C(=O)N(Cc1ccccc1)c1ccccn1 | 1.07 |
| COc1cc2ccccc2cc1C(=O)NC(=S)Nc1cc(C(=O)O)ccc1C | 3.08 |
| C1=C(c2ccccc2)Nc2ccccc2N=C1c1ccccc1 | 2.46 |
| CCOC(=O)c1c(C2COc3ccccc3O2)csc1N (stereo not drawn) | 1.39 |
| Cc1ccc(-c2csc3ncnc(N4CCc5ccccc5C4)c23)cc1 | 0.93 |
| CCCCn1c(=O)c2ccccc2c2ccccc2c1=O | 0.96 |
| N#Cc1sc2nc(C3CC3)cc(-c3ccc(Cl)cc3)c2c1N | 0.81 |
| O=C(O)c1ccc(-c2nc(-c3cccc(C(F)(F)F)c3)cs2)cc1 | 1.19 |
| CC(=O)Nc1ccc(C2=NN(c3ccccc3)C(c3cccs3)C2)cc1 (stereo not drawn) | 0.65 |
| CCOC(=O)c1c(NC(=O)CSc2nnnn2CC)sc(C)c1C | 0.81 |
| COc1ccc(OC)c(C(=O)c2coc3ccc(OCC(=O)O)cc23)c1 | 0.98 |
| COc1cc2c(cc1OC)-c1cc(N3CCCc4ccccc43)nc(=O)n1CC2 | 1.98 |
| CN(Cc1ccccc1)c1nc2c(c(=O)[nH]c(=O)n2C)n1Cc1ccccc1Cl | 1.05 |
| COc1ccc(OC)c(-c2cnc(OC(C)(C)C)nc2OC(C)(C)C)c1 | 1.35 |
| O=C(Nc1ccccc1Sc1ccccc1)c1ccc(F)cc1 | 0.97 |
| C/C=C/Cn1c(SCc2ccc(C)cc2)nc2c1c(=O)[nH]c(=O)n2C | 0.78 |
| Cc1ccc2nc(N3CCC(C(=O)O)CC3)nc(-c3ccccc3)c2c1 | 1.19 |
